≈ marks a conversion by molar mass, not a printed value.

Data set [1] can be described thus: physchem. The settings on record: buffer, pH 7.4.
Description: GSK_TB: GSK in-house hydrophobicity assay at pH7.4 (logD)
Data set [2] is described as follows: physchem. The note with it: octanol/water.
Description: GSK_TB: GSK in-house hydrophobicity assay (logP)
Data set [3] can be described thus: physchem. The settings on record: phosphate buffered saline, pH 7.4.
Data set [4] concerns Mycobacterium tuberculosis H37Rv. In words: microbe, parasite or virus in culture.
Description: GSK_TB: Intracellular minimum inhibitory concentration (MIC) H37Rv assay

Consider `Fc1ccc2nc(Nc3nc(-c4ccccn4)cs3)sc2c1`, for which the logD in the data set “physchem [1]” came to 5.53. The compound also yielded a logP in the data set “physchem [2]” of 5.54. Also, the kinetic solubility in “physchem [3]” was found to be 28.5 µM (≈ 9.36 µg/mL). Further, the MIC90 in data set [4] was 2.3 µM (≈ 0.755 µg/mL).

The compound `FC(F)(F)c1nnc2ccc(Cl)nn12` displayed a logD in the data set “physchem [1]” of 3.11. The logP in “physchem [2]” is 3.1. This compound also registered a solubility (kinetic) in the data set “physchem [3]” of 344 µM (≈ 76.6 µg/mL). Besides, in data set [4], the MIC90 amounted to 9.1 µM (≈ 2.03 µg/mL).

In the case of `Cc1ccc2nc(C(F)(F)F)c(C(=O)NCc3cccs3)n2c1`, the logD in the data set “physchem [1]” was found to be 4.79. The compound also registered a logP in “physchem [2]” of 4.98. For the same compound, the solubility (kinetic) in the data set “physchem [3]” is 17 µM (≈ 5.77 µg/mL). In data set [4], this compound yielded an MIC90 of 0.9 µM (≈ 0.305 µg/mL).

In turn, `Nc1nc(N)c2c(Sc3ccc4ccccc4c3)cccc2n1` showed a logD in the data set “physchem [1]” of 4.41. The compound also came in with a logP in the data set “physchem [2]” of 4.72. The compound also had a solubility (kinetic) in the data set “physchem [3]” of 32 µM (≈ 10.2 µg/mL). Besides, in data set [4], the MIC90 came to 8.71 µM (≈ 2.77 µg/mL).

`Cc1nc2ccccn2c1C(=O)NCc1ccc(Cl)cc1` gave a log distribution coefficient (logD) in “physchem [1]” of 4.04. Further, the log partition coefficient (logP) in “physchem [2]” was determined as 4.12. The same compound came in with a solubility (kinetic) in “physchem [3]” of 405 µM (≈ 121 µg/mL). Besides, the MIC90 in data set [4] turned out to be 0.4 µM (≈ 0.12 µg/mL).

As for `COc1ccc(-c2cncc(-c3cc(N4CCN(CCO)CC4)nc(-c4ccccc4)n3)c2)cc1`, the logD in “physchem [1]” was found to be 5.91. Besides, in the data set “physchem [2]”, the logP was found to be 6.34. In the data set “physchem [3]”, this compound returned a kinetic solubility of 1 µM (≈ 0.468 µg/mL). Also, in data set [4], the MIC90 is 1.45 µM (≈ 0.676 µg/mL).

`COc1ccc2nc(C)cc(OCC(=O)NCc3ccccc3)c2c1` gave a logD in the data set “physchem [1]” of 3.86. In the data set “physchem [2]”, this compound registered a lipophilicity (logP) of 3.92. For the same compound, the kinetic solubility in “physchem [3]” is 96 µM (≈ 32.3 µg/mL). This compound also yielded an MIC90 in data set [4] of 1.1 µM (≈ 0.37 µg/mL).

With `O=C(/C=C/c1ccccc1)N1CCN(Cc2cccc(OCc3ccccc3)c2)CC1`, in “physchem [1]”, the logD stood at 7.21. Further, the logP in the data set “physchem [2]” came to 7.54. In “physchem [3]”, this compound returned a kinetic solubility of 61 µM (≈ 25.2 µg/mL). The MIC90 in data set [4] turned out to be 8.22 µM (≈ 3.39 µg/mL).

The compound `CC(C)OC(=O)COc1ccc(-c2cnc(N(C)CCc3ccncc3)nc2)cc1` had a logD in the data set “physchem [1]” of 5.63. The compound also had a logP in the data set “physchem [2]” of 5.93. Besides, the kinetic solubility in “physchem [3]” was found to be 182 µM (≈ 74 µg/mL). Also, the MIC90 in data set [4] was found to be 6.76 µM (≈ 2.75 µg/mL).

With `Cc1ccc(SCCNC(=O)c2c(-c3ccccc3)noc2C)cc1`, the log distribution coefficient (logD) in the data set “physchem [1]” turned out to be 6.37. The lipophilicity (logP) in the data set “physchem [2]” worked out at 6.68. For the same compound, in the data set “physchem [3]”, the kinetic solubility was 50 µM (≈ 17.6 µg/mL). This compound registered an MIC90 in data set [4] of 7.76 µM (≈ 2.74 µg/mL).

Take `N#Cc1nc(-c2ccccc2)oc1S(=O)(=O)c1ccc(Cl)cc1`: in the data set “physchem [1]”, the logD was 7.12. The same compound gave a lipophilicity (logP) in the data set “physchem [2]” of 7.48. For the same compound, the solubility (kinetic) in “physchem [3]” came out at 1 µM (≈ 0.345 µg/mL). The compound further came in with an MIC90 in data set [4] of 8.9 µM (≈ 3.07 µg/mL).

With `O=C(NCc1ccccc1F)N1CCN(Cc2ccc(Br)s2)CC1`, in the data set “physchem [1]”, the logD is 5.72. The compound also gave a lipophilicity (logP) in the data set “physchem [2]” of 5.93. The same compound gave a solubility (kinetic) in “physchem [3]” of 60 µM (≈ 24.7 µg/mL). Also, the MIC90 in data set [4] turned out to be 6.6 µM (≈ 2.72 µg/mL).

Compound `c1cncc(NCc2ccc(-c3cc4ccncc4cc3OC3CCNCC3)s2)c1` displayed a logD in “physchem [1]” of 1.9. The logP in “physchem [2]” is 4.23. For the same compound, the kinetic solubility in “physchem [3]” was 167 µM (≈ 69.6 µg/mL). This compound also gave an MIC90 in data set [4] of 8.61 µM (≈ 3.59 µg/mL).

Take `CN1CCN(c2cc(-c3ccc(F)cc3)nc(-c3ccncc3)n2)CC1`: the logD in the data set “physchem [1]” amounted to 5.07. The compound also yielded a log partition coefficient (logP) in “physchem [2]” of 5.73. The compound further displayed a kinetic solubility in the data set “physchem [3]” of 44 µM (≈ 15.4 µg/mL). In data set [4], this compound gave an MIC90 of 7.41 µM (≈ 2.59 µg/mL).

On to `CC(C)c1ccc(-c2cncc(N3CCN(c4ccncc4)CC3)n2)cc1`, for which the logD in “physchem [1]” came to 4.79. The compound further had a log partition coefficient (logP) in the data set “physchem [2]” of 6.74. In “physchem [3]”, this compound showed a kinetic solubility of 89 µM (≈ 32 µg/mL). Further, the MIC90 in data set [4] amounted to 8.32 µM (≈ 2.99 µg/mL).

In the data set “physchem [1]”, `Cc1ccc2nc(C(F)(F)F)c(C(=O)NCc3cc(Cl)cc(Cl)c3)n2c1` came in with a logD of 6.65. This compound showed a lipophilicity (logP) in “physchem [2]” of 7.04. The kinetic solubility in the data set “physchem [3]” turned out to be 1 µM (≈ 0.402 µg/mL). The same compound registered an MIC90 in data set [4] of 0.9 µM (≈ 0.362 µg/mL).

With `c1csc(Cc2nn3c(-c4n[nH]c5c4CCC5)nnc3s2)c1`, the log distribution coefficient (logD) in the data set “physchem [1]” came out at 3.3. The compound further registered a logP in the data set “physchem [2]” of 3.48. Further, the solubility (kinetic) in “physchem [3]” came out at 196 µM (≈ 64.4 µg/mL). Also, in data set [4], the MIC90 was 2.4 µM (≈ 0.788 µg/mL).

In the case of `CC(=O)NCCn1c(Sc2ccnc(N3CCN(c4ccncc4)CC3)n2)nnc1-c1ccccc1`, the logD in the data set “physchem [1]” was determined as 1.06. Moreover, in “physchem [2]”, the logP stood at 1.82. Besides, the solubility (kinetic) in “physchem [3]” was determined as 135 µM (≈ 67.7 µg/mL). Also, the MIC90 in data set [4] came to 8.91 µM (≈ 4.47 µg/mL).

`CCc1ccc(Nc2nnc(SCc3cc(C)on3)s2)cc1` yielded a logD in “physchem [1]” of 5.72. The lipophilicity (logP) in “physchem [2]” came out at 5.98. This compound showed a solubility (kinetic) in “physchem [3]” of 1 µM (≈ 0.332 µg/mL). Moreover, the MIC90 in data set [4] is 2.8 µM (≈ 0.931 µg/mL).

In the data set “physchem [1]”, `CCC(Sc1nc2ccccc2o1)C(=O)Nc1nccs1` (configuration not stated) gave a logD of 5.44. The compound also gave a logP in the data set “physchem [2]” of 5.78. The compound also had a solubility (kinetic) in the data set “physchem [3]” of 105 µM (≈ 33.5 µg/mL). Further, in data set [4], the MIC90 is 2.79 µM (≈ 0.89 µg/mL).

With `O=C(NCc1ccc2c(c1)OCO2)c1c(C(F)(F)F)nc2ccccn12`, the logD in “physchem [1]” stood at 4.23. In the data set “physchem [2]”, the logP was determined as 4.38. This compound also came in with a solubility (kinetic) in “physchem [3]” of 115 µM (≈ 41.8 µg/mL). The compound further registered an MIC90 in data set [4] of 3.3 µM (≈ 1.2 µg/mL).

On to `Cc1ccc2nc(Cl)c(CNCc3cccs3)cc2c1`, for which the pH-dependent lipophilicity (logD) in the data set “physchem [1]” amounted to 6.84. The compound also had a logP in the data set “physchem [2]” of 7.23. The compound further displayed a solubility (kinetic) in “physchem [3]” of 44 µM (≈ 13.3 µg/mL). Besides, the MIC90 in data set [4] was 7.59 µM (≈ 2.3 µg/mL).

Take `Cc1cccc(Cn2ccc(NC(=O)c3ccc4c(c3)OCO4)n2)c1`: in the data set “physchem [1]”, the logD was 5.07. In addition, the lipophilicity (logP) in the data set “physchem [2]” was found to be 5.27. In addition, the kinetic solubility in “physchem [3]” came out at 80 µM (≈ 26.8 µg/mL). The MIC90 in data set [4] came to 3.7 µM (≈ 1.24 µg/mL).

Consider `COc1cc(Cc2cnc(N)nc2N)c2cnccc2c1N(C)C`, for which the pH-dependent lipophilicity (logD) in the data set “physchem [1]” was 2.55. The logP in “physchem [2]” was found to be 2.61. Also, the kinetic solubility in the data set “physchem [3]” was found to be 304 µM (≈ 98.6 µg/mL). The MIC90 in data set [4] amounted to 2.99 µM (≈ 0.968 µg/mL).

On to `Br.CC(C)(C)c1ccccc1OCCCON1C(=N)N=C(N)NC1(C)C`, for which the logD in “physchem [1]” worked out at 4.04. The lipophilicity (logP) in the data set “physchem [2]” was 6.14. The compound also showed a solubility (kinetic) in the data set “physchem [3]” of 363 µM. In addition, the MIC90 in data set [4] is 2.3 µM.

`c1ccc(SCc2nn3c(-c4ccccc4)nnc3s2)cc1` had a log distribution coefficient (logD) in the data set “physchem [1]” of 5.44. In the data set “physchem [2]”, this compound yielded a log partition coefficient (logP) of 5.78. Moreover, in “physchem [3]”, the kinetic solubility turned out to be 1 µM (≈ 0.324 µg/mL). The MIC90 in data set [4] came out at 2.69 µM (≈ 0.873 µg/mL).

On to `c1ccc(-c2nc(NC3CCCCC3)cc(C3CC3)n2)nc1`, for which, in the data set “physchem [1]”, the logD is 6.09. The same compound registered a logP in the data set “physchem [2]” of 6.74. The compound further came in with a kinetic solubility in the data set “physchem [3]” of 302 µM (≈ 88.9 µg/mL). Further, in data set [4], the MIC90 turned out to be 7.08 µM (≈ 2.08 µg/mL).

The compound `O=C(C1CCN(c2nnc(-n3cccc3)s2)CC1)N1CCC(Cc2ccccc2)CC1` came in with a logD in the data set “physchem [1]” of 6.37. In “physchem [2]”, this compound gave a logP of 6.78. The kinetic solubility in the data set “physchem [3]” amounted to 1 µM (≈ 0.436 µg/mL). In data set [4], the MIC90 was found to be 4.2 µM (≈ 1.83 µg/mL).

In turn, `CSc1cccc(C(=O)Nc2nc(-c3ccccn3)cs2)c1` had a logD in the data set “physchem [1]” of 5.25. In addition, the logP in the data set “physchem [2]” was determined as 5.26. The compound also displayed a kinetic solubility in the data set “physchem [3]” of 12 µM (≈ 3.93 µg/mL). This compound also showed an MIC90 in data set [4] of 3.72 µM (≈ 1.22 µg/mL).

As to `CCc1ccc(C2CC(C(F)(F)F)n3ncc(C(=O)NCc4cccs4)c3N2)cc1` (configuration not stated), the logD in “physchem [1]” was 6.99. In “physchem [2]”, this compound yielded a logP of 7.27. In the data set “physchem [3]”, this compound displayed a solubility (kinetic) of 1 µM (≈ 0.434 µg/mL). The MIC90 in data set [4] was found to be 4.37 µM (≈ 1.9 µg/mL).

With `Cc1ccc2nc(C)c(C(=O)NCc3ccco3)n2c1`, the logD in the data set “physchem [1]” was found to be 3.02. Moreover, the lipophilicity (logP) in “physchem [2]” was determined as 3.02. This compound also showed a kinetic solubility in the data set “physchem [3]” of 277 µM (≈ 74.6 µg/mL). The MIC90 in data set [4] turned out to be 1.3 µM (≈ 0.35 µg/mL).

In “physchem [1]”, `O=C(NC1=NCCS1)c1sc2cc(F)ccc2c1Cl` registered a log distribution coefficient (logD) of 5.16. This compound also registered a logP in the data set “physchem [2]” of 5.49. For the same compound, the solubility (kinetic) in “physchem [3]” stood at 1 µM (≈ 0.315 µg/mL). This compound returned an MIC90 in data set [4] of 8.61 µM (≈ 2.71 µg/mL).

Consider `CCc1ccc(S(=O)(=O)Nc2cc(CN3CCN(CCC(C)C)CC3)ccc2C)cc1.O=C(O)C(F)(F)F.O=C(O)C(F)(F)F`, for which, in “physchem [1]”, the log distribution coefficient (logD) was 6.28. For the same compound, the logP in “physchem [2]” worked out at 7.74. In addition, the solubility (kinetic) in the data set “physchem [3]” was found to be 313 µM. Besides, in data set [4], the MIC90 is 4.68 µM.

Values taken from ChEMBL document CHEMBL2095176, “GSK Tuberculosis Screening Data”.
